Measured values published in ChEMBL document CHEMBL1132329, “Synthesis and histone deacetylase inhibitory activity of new benzamide derivatives” (J Med Chem, 1999).

Target: Histone deacetylase
Assay: Inhibitory activity against partially purified histone deacetylase of human leukemia K562 cells.
Assay type: cell-based

| Structure (SMILES) | IC50 [µM] |
| --- | --- |
| COc1ccc(N)c(NC(=O)c2ccc(CNC(=O)OCc3cccnc3)cc2)c1 | 4.6 |
| Nc1ccc(F)cc1NC(=O)c1ccc(CNC(=O)OCc2cccnc2)cc1 | 6 |
| O=C(NCc1ccc(C(=O)Nc2ccccc2O)cc1)OCc1cccnc1 | 2.2 |
| CCCC(=O)[O-].[Na+] [SODIUM BUTYRATE] | 140 |
| CC(=O)Nc1ccccc1NC(=O)c1ccc(CNC(=O)OCc2cccnc2)cc1 | > 100 |
| COc1ccc(NC(=O)c2ccc(CNC(=O)OCc3cccnc3)cc2)c(N)c1 | 44 |

The remaining lines, values ahead:

| IC50 [µM] | Structure (SMILES) |
| --- | --- |
| > 100 | Nc1cccc(NC(=O)c2ccc(CNC(=O)OCc3cccnc3)cc2)c1 |
| 7.7 | Nc1ccc(Cl)cc1NC(=O)c1ccc(CNC(=O)OCc2cccnc2)cc1 |
| > 100 | Cc1ccc(NC(=O)c2ccc(CNC(=O)OCc3cccnc3)cc2)c(N)c1 |
| 2.8 | Cc1ccc(N)c(NC(=O)c2ccc(CNC(=O)OCc3cccnc3)cc2)c1 |
| > 100 | Cc1cccc(NC(=O)c2ccc(CNC(=O)OCc3cccnc3)cc2)c1N |
| 40 | Nc1cc(Cl)ccc1NC(=O)c1ccc(CNC(=O)OCc2cccnc2)cc1 |
| > 100 | Nc1ccc(NC(=O)c2ccc(CNC(=O)OCc3cccnc3)cc2)cc1 |
| > 100 | O=C(NCc1ccc(C(=O)Nc2ccccc2)cc1)OCc1cccnc1 |
